System: HPMC (human peritoneal mesothelial cells)
Assay: HPMC viability under high level glucose, cell counting (WST-1)
Type: cell-based
Settings: for effect on decrease in the viability of HPMC attributed to glucose (as measured by absorbance): preincubation 3 h with 0, 10, 100, 1,000 μM test substance, then 8 h in glucose 5.8 mM, 75 mM, 140 mM, WST-1
Description: Peritoneal mesothelial cells (HPMC) were preincubated for three hours in culture media (M199) containing ATP (0, 10, 100, and 1,000 μM). The cells were washed with an HPMC culture medium (saline buffer) and then incubated for eight hours in culture media (M199) containing glucose at three different levels (5.8 mM, 75 mM, and 140 mM). HPMC viability was obtained through cell counting (WST-1).
Instead of ATP, adenosine, which is a metabolite of ATP, was employed to study the effect of adenosine on decrease in HPMC viability caused by high level glucose.
Prior to the step of preincubation with ATP-containing culture media in the procedure of Example 1, HPMC were preincubated for 30 minutes with each of the following selective ATP receptor antagonists: (1) Suramin (P2X, P2Y receptor antagonist; 10 μM), (2) Reactive Blue 2 (P2Y receptor antagonist; 30 μM), and (3) PPADS (P2X receptor antagonist; 10 μM). Thereafter, the test was performed as described in Example 1.

| Structure (SMILES) | ATP's effect on decrease in the viability of HPMC attributed to glucose after ATP receptor antagonist pretreatment (HPMC preincubated 30 min with Suramin 10 μM, Reactive Blue 2 30 μM or PPADS 10 μM before ATP preincubation, glucose 5.8, 75, 140 mM) | effect on decrease in the viability of HPMC attributed to glucose (as measured by absorbance) |
| --- | --- | --- |
| Nc1ncnc2c1ncn2[C@@H]1O[C@H](COP(=O)(O)OP(=O)(O)OP(=O)(O)O)[C@@H](O)[C@H]1O [ATP, adenosine triphosphate] | no effect of alleviating reduction in HPMC viability | decrease in viability caused by high level glucose was significantly alleviated |
| Nc1ncnc2c1ncn2[C@@H]1O[C@H](CO)[C@@H](O)[C@H]1O [Adenosine, adenosine, reference compound] |  | no effect of alleviating decrease in HPMC viability |
